Drawing on patent US11407760B2, “Dioxinoquinoline compounds, preparation method and uses thereof” (BEIJING SCITECH-MQ PHARMACEUTICALS LIMITED, priority 2018, dated 2022), this text covers IC50 for 23 compounds.

Some results are limits rather than exact numbers.

The test concerns MHCC97H cells. The experiment in a line: Inhibitory activity on the proliferation of MHCC97H cells (CCK-8). The class given is cell-based. The conditions noted are these: Homo sapiens, MHCC97H cell proliferation, 72 hours of incubation. The protocol: Biological Example 3. Assay of the Inhibitory Activity of Small Molecular Compounds on the Proliferation of MHCC97H Cells
The specific steps of the assay are as follows:
1. Dilution of compounds: a total of 9 concentrations were obtained using a 3-fold gradient dilution from the highest concentration of 5000 nM (the maximum final concentration of the drug used in this assay was 5000 nM, and the minimum final concentration was 0.76 nM).
2. MHCC97H cells were collected, then transferred to a 15 mL centrifuge tube, and centrifuged at 1000 rpm for 5 minutes.
3. The supernatant was discarded, and the complete medium was added and pipetted evenly, 10 μL of cell suspension was taken out and mixed evenly with 10 μL of 0.4% trypan blue, the counting was carried out with a cell counter, and the number and survival rate of cells were recorded;
4. The cell suspension was seeded into a 96-well plate at 5000 cells/80 μL per well;
5. 20 μL of the corresponding 5× compound solution diluted with the medium mentioned above was added to each well and mixed evenly;
6. After 72 hours of incubation, 10 μL of CCK-8 reagent was added to each well and incubated for another 2 hours (the reaction time can be adjusted according to the color depth);
7. The OD value was read at 450 nm on a multi-function plate reader.
8. Data processing: cell survival rate (%)=[(As−Ab)/(Ac−Ab)]*100%
As: OD value of assay well (medium containing cells, CCK-8, compound),
Ac: OD value of control well (medium containing cells, CCK-8),
Ab: OD value of blank well (CCK-8, medium without cell and compound),
The values were then imported into Graphpad Prism5 software for curve fitting, and IC50 was calculated.
Table 3 lists the assay results of the inhibitory activity of some compounds disclosed herein on the proliferation of the MHCC97H cell line.
Regarding `COc1cc2nccc(Oc3ccc(NC(=O)C4(C(=O)Nc5ccc(F)cc5)CC4)cc3)c2c2c1OCCO2` [Example 1, N-(4-fluorophenyl)-N-(4-((5-methoxy-2,3-dihydro-[1,4]dioxino[2,3-f]quinolin-10-yl)oxy)phenyl)cyclopropan-1,1-dicarboxamide], the IC50 is under 50 nM.

Compound `COc1cc2nccc(Oc3ccc(NC(=O)C4(C(=O)Nc5ccc(F)cc5)CC4)cc3F)c2c2c1OCCO2` [Example 2, N-(3-fluoro-4-((5-methoxy-2,3-dihydro-[1,4]dioxino[2,3-f]quinolin-10-yl)oxy)phenyl)-N-(4-fluorophenyl)cyclopropan-1,1-dicarboxamide] registered an IC50 of under 50 nM.

On to `COc1cc2nccc(Oc3ccc(NC(=O)C4(C(=O)Nc5ccc(F)cc5)CC4)c(F)c3)c2c2c1OCCO2` [Example 3, N-(2-fluoro-4-((5-methoxy-2,3-dihydro-[1,4]dioxino[2,3-f]quinolin-10-yl)oxy)phenyl)-N-(4-fluorophenyl)cyclopropan-1,1-dicarboxamide], for which the IC50 was under 50 nM.

`O=C(Nc1ccc(F)cc1)C1(C(=O)Nc2ccc(Oc3ccnc4cc(OCCCN5CCOCC5)c5c(c34)OCCO5)cc2)CC1` [Example 4, N-(4-fluorophenyl)-N-(4-((5-(3-morpholinopropoxy)-2,3-dihydro-[1,4]dioxino[2,3-f]quinolin-10-yl)oxy)phenyl)cyclopropan-1,1-dicarboxamide] gave an IC50 of under 50 nM.

Take `O=C(Nc1ccc(F)cc1)C1(C(=O)Nc2ccc(Oc3ccnc4cc(OCCCN5CCOCC5)c5c(c34)OCCO5)c(F)c2)CC1` [Example 5, N-(3-fluoro-4-((5-(3-morpholinopropoxy)-2,3-dihydro-[1,4]dioxino[2,3-f]quinolin-10-yl)oxy)phenyl)-N-(4-fluorophenyl)cyclopropan-1,1-dicarboxamide]: the IC50 is under 50 nM.

`O=C(Nc1ccc(F)cc1)C1(C(=O)Nc2ccc(Oc3ccnc4cc(OCCCN5CCOCC5)c5c(c34)OCCO5)cc2F)CC1` [Example 6, N-(2-fluoro-4-((5-(3-morpholinopropoxy)-2,3-dihydro-[1,4]dioxino[2,3-f]quinolin-10-yl)oxy)phenyl)-N-(4-fluorophenyl)cyclopropan-1,1-dicarboxamide] came in with an IC50 of under 50 nM.

In turn, `CCOc1cc2nccc(Oc3ccc(NC(=O)C4(C(=O)Nc5ccc(F)cc5)CC4)cc3F)c2c2c1OCCO2` [Example 7, N-(4-((5-ethoxy-2,3-dihydro-[1,4]dioxino[2,3-f]quinolin-10-yl)oxy)-3-fluorophenyl)-N-(4-fluorophenyl)cyclopropan-1,1-dicarboxamide] yielded an IC50 of under 50 nM.

`CN(C)CCCOc1cc2nccc(Oc3ccc(NC(=O)C4(C(=O)Nc5ccc(F)cc5)CC4)cc3F)c2c2c1OCCO2` [Example 8, N-(4-((5-(3-(dimethylamino)propoxy)-2,3-dihydro-[1,4]dioxino[2,3-f]quinolin-10-yl)oxy)-3-fluorophenyl)-N-(4-fluorophenyl)cyclopropan-1,1-dicarboxamide]: the IC50 is under 50 nM.

In the case of `O=C(Nc1ccc(F)cc1)C1(C(=O)Nc2ccc(Oc3ccnc4cc(OCCCN5CCCCC5)c5c(c34)OCCO5)c(F)c2)CC1` [Example 9, N-(4-((5-(3-(piperidin-1-yl)propoxy)-2,3-dihydro-[1,4]dioxino[2,3-f]quinolin-10-yl)oxy)-3-fluorophenyl)-N-(4-fluorophenyl)cyclopropan-1,1-dicarboxamide], the IC50 is under 50 nM.

`COCCOc1cc2nccc(Oc3ccc(NC(=O)C4(C(=O)Nc5ccc(F)cc5)CC4)cc3F)c2c2c1OCCO2` [Example 10, N-(3-fluoro-4-((5-(2-methoxyethoxy)-2,3-dihydro-[1,4]dioxino[2,3-f]quinolin-10-yl)oxy)phenyl)-N-(4-fluorophenyl)cyclopropan-1,1-dicarboxamide] yielded an IC50 of under 50 nM.

Take `O=C(Nc1ccc(F)cc1)C1(C(=O)Nc2ccc(Oc3ccnc4cc(OCCCO)c5c(c34)OCCO5)c(F)c2)CC1` [Example 13, N-(3-fluoro-4-((5-(3-hydroxypropoxy)-2,3-dihydro-[1,4]dioxino[2,3-f]quinolin-10-yl)oxy)phenyl)-N-(4-fluorophenyl)cyclopropan-1,1-dicarboxamide]: the IC50 is under 50 nM.

Take `COCCCOc1cc2nccc(Oc3ccc(NC(=O)C4(C(=O)Nc5ccc(F)cc5)CC4)cc3F)c2c2c1OCCO2` [Example 14, N-(3-fluoro-4-((5-(3-methoxypropoxy)-2,3-dihydro-[1,4]dioxino[2,3-f]quinolin-10-yl)oxy)phenyl)-N-(4-fluorophenyl)cyclopropan-1,1-dicarboxamide]: the IC50 is under 50 nM.

Consider `COCCN(C)CCCOc1cc2nccc(Oc3ccc(NC(=O)C4(C(=O)Nc5ccc(F)cc5)CC4)cc3F)c2c2c1OCCO2` [Example 15, N-(3-fluoro-4-((5-(3-((2-methoxyethyl)(methyl)amino)propoxy)-2,3-dihydro-[1,4]dioxino [2,3-f]quinolin-10-yl)oxy)phenyl)-N-(4-fluorophenyl)cyclopropan-1,1-dicarboxamide], for which the IC50 was under 50 nM.

Take `O=C(Nc1ccc(F)cc1)C1(C(=O)Nc2ccc(Oc3ccnc4cc(OC5CCOC5)c5c(c34)OCCO5)c(F)c2)CC1` (centres unmarked) [Example 17, N-(3-fluoro-4-((5-((tetrahydrofuran-3-yl)oxy)-2,3-dihydro-[1,4]dioxino[2,3-f]quinolin-10-yl)oxy)phenyl)-N-(4-fluorophenyl)cyclopropan-1,1-dicarboxamide]: the IC50 is under 50 nM.

The compound `CN1CCN(CCCOc2cc3nccc(Oc4ccc(NC(=O)C5(C(=O)Nc6ccc(F)cc6)CC5)cc4F)c3c3c2OCCO3)CC1` [Example 21, N-(4-((5-(3-(4-methylpiperazin-1-yl)propoxy)-2,3-dihydro-[1,4]dioxino[2,3-f]quinolin-10-yl)oxy)-3-fluorophenyl)-N-(4-fluorophenyl)cyclopropan-1,1-dicarboxamide] returned an IC50 of under 50 nM.

`CC1(O)CCN(CCCOc2cc3nccc(Oc4ccc(NC(=O)C5(C(=O)Nc6ccc(F)cc6)CC5)cc4F)c3c3c2OCCO3)CC1` [Example 22, N-(3-fluoro-4-((5-(3-(4-hydroxy-4-methylpiperidin-1-yl)propoxy)-2,3-dihydro-[1,4]dioxino[2,3-f]quinolin-10-yl)oxy)phenyl)-N-(4-fluorophenyl)cyclopropan-1,1-dicarboxamide] had an IC50 of under 50 nM.

Compound `CN(CCCOc1cc2nccc(Oc3ccc(NC(=O)C4(C(=O)Nc5ccc(F)cc5)CC4)cc3F)c2c2c1OCCO2)C1CCC1` [Example 23, N-(4-((5-(3-(cyclobutyl(methyl)amino)propoxy)-2,3-dihydro-[1,4]dioxino[2,3-f]quinolin-10-yl)oxy)-3-fluorophenyl)-N-(4-fluorophenyl)cyclopropan-1,1-dicarboxamide] displayed an IC50 of under 50 nM.

As for `O=C(Nc1ccc(F)cc1)C1(C(=O)Nc2ccc(Oc3ccnc4cc(OCCCN5CCS(=O)(=O)CC5)c5c(c34)OCCO5)c(F)c2)CC1` [Example 24, N-(4-((5-(3-(1,1-dioxothiomorpholin-4-yl)propoxy)-2,3-dihydro-[1,4]dioxino[2,3-f]quinolin-10-yl)oxy)-3-fluorophenyl)-N-(4-fluorophenyl)cyclopropan-1,1-dicarboxamide], the IC50 is under 50 nM.

Consider `O=C(Nc1ccc(F)cc1)C1(C(=O)Nc2ccc(Oc3ccnc4cc(OCCCN5CCCC5)c5c(c34)OCCO5)c(F)c2)CC1` [Example 25, N-(3-fluoro-4-((5-(3-(pyrrolidin-1-yl)propoxy)-2,3-dihydro-[1,4]dioxino[2,3-f]quinolin-10-yl)oxy)phenyl)-N-(4-fluorophenyl)cyclopropan-1,1-dicarboxamide], for which the IC50 is under 50 nM.

Compound `N#CCCCOc1cc2nccc(Oc3ccc(NC(=O)C4(C(=O)Nc5ccc(F)cc5)CC4)cc3F)c2c2c1OCCO2` [Example 26, N-(3-fluoro-4-((5-(3-cyanopropoxy)-2,3-dihydro-[1,4]dioxino[2,3-f]quinolin-10-yl)oxy)phenyl)-N-(4-fluorophenyl)cyclopropan-1,1-dicarboxamide] displayed an IC50 of under 50 nM.

The compound `CN(C)CCCCCCOc1cc2nccc(Oc3ccc(NC(=O)C4(C(=O)Nc5ccc(F)cc5)CC4)cc3F)c2c2c1OCCO2` [Example 27, N-(4-((5-((6-(dimethylamino)hexyl)oxy)-2,3-dihydro-[1,4]dioxino[2,3-f]quinolin-10-yl)oxy)-3-fluorophenyl)-N-(4-fluorophenyl)cyclopropan-1,1-dicarboxamide] yielded an IC50 of under 50 nM.

Turning to `O=C(Nc1ccc(F)cc1)C1(C(=O)Nc2ccc(Oc3ccnc4cc(OC5COC5)c5c(c34)OCCO5)c(F)c2)CC1` [Example 28, N-(3-fluoro-4-((5-(oxetan-3-yloxy)-2,3-dihydro-[1,4]dioxino[2,3-f]quinolin-10-yl)oxy)phenyl)-N-(4-fluorophenyl)cyclopropan-1,1-dicarboxamide], the concentration for half-maximal inhibition (IC50) was under 50 nM.

The compound `CC1(C)CCN(CCCOc2cc3nccc(Oc4ccc(NC(=O)C5(C(=O)Nc6ccc(F)cc6)CC5)cc4F)c3c3c2OCCO3)CC1` [Example 29, N-(3-fluoro-4-((5-(3-(4,4-dimethylpiperidin-1-yl)propoxy)-2,3-dihydro-[1,4]dioxino[2,3-f]quinolin-10-yl)oxy)phenyl)-N-(4-fluorophenyl)cyclopropan-1,1-dicarboxamide] had an IC50 of under 50 nM.

For orientation: IC50 means the concentration that gives 50% inhibition. A lower IC50 goes with higher potency.
